Data: article PMC12756739 (ACS Omega, 2025)
Like-named read-outs stand apart in the source and are kept apart here.

Key:
COX-2 enzyme = molecular target: T1, COX-2 enzyme (Homo sapiens, UniProt P35354); assay: biochemical
T1 sequence (P35354 18-604): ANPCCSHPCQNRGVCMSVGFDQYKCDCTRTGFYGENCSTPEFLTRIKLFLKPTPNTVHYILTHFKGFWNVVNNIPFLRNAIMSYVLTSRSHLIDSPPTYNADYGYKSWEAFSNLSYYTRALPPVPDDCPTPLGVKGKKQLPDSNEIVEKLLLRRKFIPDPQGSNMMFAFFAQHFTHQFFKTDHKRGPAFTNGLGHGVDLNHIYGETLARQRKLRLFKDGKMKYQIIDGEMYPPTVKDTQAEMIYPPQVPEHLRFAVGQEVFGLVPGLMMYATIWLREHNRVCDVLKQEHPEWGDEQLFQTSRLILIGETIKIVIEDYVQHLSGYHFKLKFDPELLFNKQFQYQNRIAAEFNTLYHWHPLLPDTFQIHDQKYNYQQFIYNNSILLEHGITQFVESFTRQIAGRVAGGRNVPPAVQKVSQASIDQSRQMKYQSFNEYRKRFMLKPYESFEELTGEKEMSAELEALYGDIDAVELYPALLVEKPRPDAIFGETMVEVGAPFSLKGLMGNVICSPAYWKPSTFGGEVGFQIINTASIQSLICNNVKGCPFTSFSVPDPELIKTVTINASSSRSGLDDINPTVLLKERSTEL

MCF-7 cell line [1] = assay: MTT cytotoxicity test, MCF-7 cell line; type: cell-based; conditions: Homo sapiens, MCF7, read-out: IC50 (μM) MCF-7
A549 cell line = assay: MTT cytotoxicity test, A549 cell line; type: cell-based; conditions: Homo sapiens, A549, read-out: IC50 (μM) A549
NIH3T3 cells = assay: MTT cytotoxicity test, NIH3T3 cell line; type: cell-based; conditions: Mus musculus, NIH3T3, read-out: IC50 (μM) NIH3T3
CA IX = conditions: read-out: inhibition constant CA IX; ref Mohamed et al.; cited from earlier work
HDAC2 = conditions: read-out: IC50 HDAC2; ref Mohamed et al.; cited from earlier work
HDAC1 = conditions: read-out: IC50 HDAC1; ref Mohamed et al.; cited from earlier work
tubulin polymerization [2] = conditions: read-out: IC50 antitubulin polymerization assay; ref Mohamed et al.; cited from earlier work
CA XII = conditions: read-out: inhibition constant CA XII; ref Mohamed et al.; cited from earlier work
topoisomerase II = conditions: ref Ewieda et al.; cited from earlier work
CDK6 = conditions: ref Abdalla et al.; cited from earlier work
CDK2 = conditions: ref Abdalla et al.; cited from earlier work
CDK12 = conditions: ref Abdalla et al.; cited from earlier work
[3] = tested on: carbonic anhydrase IX (CA IX); conditions: ref Fadaly et al.; cited from earlier work
[4] = tested on: carbonic anhydrase XII (CA XII); conditions: ref Fadaly et al.; cited from earlier work
MCF-7 cell line [5] = assay: Flow cytometric apoptosis/necrosis analysis; type: cell-based; conditions: at the IC50 concentration
EGFR enzyme = EGFR enzyme (Homo sapiens, UniProt P00533); assay: EGFR kinase inhibition assay; type: biochemical
Sequence of EGFR enzyme (P00533 25-1210): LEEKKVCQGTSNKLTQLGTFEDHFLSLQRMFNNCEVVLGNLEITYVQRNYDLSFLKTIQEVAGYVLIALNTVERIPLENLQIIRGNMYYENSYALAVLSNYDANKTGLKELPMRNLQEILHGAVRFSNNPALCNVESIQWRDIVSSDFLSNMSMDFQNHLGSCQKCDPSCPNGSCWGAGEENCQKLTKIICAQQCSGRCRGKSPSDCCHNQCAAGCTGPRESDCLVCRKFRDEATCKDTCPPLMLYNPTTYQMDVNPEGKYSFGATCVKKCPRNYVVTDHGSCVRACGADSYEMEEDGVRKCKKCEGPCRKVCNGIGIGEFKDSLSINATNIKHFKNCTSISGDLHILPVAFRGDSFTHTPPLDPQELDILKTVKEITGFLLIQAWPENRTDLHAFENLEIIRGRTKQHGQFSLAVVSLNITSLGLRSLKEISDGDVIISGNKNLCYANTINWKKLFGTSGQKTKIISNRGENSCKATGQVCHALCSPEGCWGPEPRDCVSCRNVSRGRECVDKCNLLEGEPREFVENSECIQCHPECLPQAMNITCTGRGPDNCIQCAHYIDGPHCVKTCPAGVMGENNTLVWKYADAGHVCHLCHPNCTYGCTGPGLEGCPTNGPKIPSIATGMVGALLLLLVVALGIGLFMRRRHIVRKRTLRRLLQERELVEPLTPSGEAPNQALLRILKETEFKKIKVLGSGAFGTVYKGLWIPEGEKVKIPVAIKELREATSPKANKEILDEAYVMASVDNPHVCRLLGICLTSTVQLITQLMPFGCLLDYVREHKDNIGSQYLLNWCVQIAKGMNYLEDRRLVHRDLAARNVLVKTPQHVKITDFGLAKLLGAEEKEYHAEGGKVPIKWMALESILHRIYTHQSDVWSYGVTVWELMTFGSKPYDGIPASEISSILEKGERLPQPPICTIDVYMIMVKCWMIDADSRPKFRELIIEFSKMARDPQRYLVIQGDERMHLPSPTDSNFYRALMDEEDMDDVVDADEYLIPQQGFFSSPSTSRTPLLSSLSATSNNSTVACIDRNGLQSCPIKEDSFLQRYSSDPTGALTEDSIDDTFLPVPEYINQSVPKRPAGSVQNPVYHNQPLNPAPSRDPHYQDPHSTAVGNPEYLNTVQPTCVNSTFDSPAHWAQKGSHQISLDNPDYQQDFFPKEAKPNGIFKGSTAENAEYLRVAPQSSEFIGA

COX-2 = conditions: ref Fadaly et al.; cited from earlier work
EGFR^L858R/T790M = conditions: ref Fadaly et al.; cited from earlier work
EGFR^WT [6] = conditions: ref Fadaly et al.; cited from earlier work
EGFR^WT [7] = conditions: read-out: IC50 EGFR^WT; ref Aboelez et al.; cited from earlier work
tubulin polymerization [8] = conditions: read-out: antitubulin polymerization IC50; ref Aboelez et al.; cited from earlier work
EGFR^T790M = conditions: read-out: IC50 EGFR^T790M; ref Aboelez et al.; cited from earlier work
AKT-1 = conditions: read-out: IC50 AKT-1; ref Abd El-Mawgoud et al.; cited from earlier work
VEGFR-2 = conditions: read-out: IC50 VEGFR-2; ref Abd El-Mawgoud et al.; cited from earlier work

| Compound | IC50 (COX-2 enzyme) [µM] | IC50 (MCF-7 cell line [1]) [µM] | IC50 (A549 cell line) [µM] | IC50 (NIH3T3 cells) [µM] | other results |
| --- | --- | --- | --- | --- | --- |
| O=C(CSc1nnc(NC(=O)c2ccc(Cl)cc2)s1)Nc1ccccc1 [3f, 4-Chloro-N-(5-((2-oxo-2-(phenylamino)ethyl)thio)-1,3,4-thiadiazol-2-yl)benzamide] | 0.874 ± 0.039 | > 100 | > 100 | > 100 |  |
| O=C(CSc1nnc(NC(=O)c2ccc(F)cc2)s1)Nc1ccccc1 [3k, 4-Fluoro-N-(5-((2-oxo-2-(phenylamino)ethyl)thio)-1,3,4-thiadiazol-2-yl)benzamide] | > 1000 | > 100 | 69.1 ± 2.8 | > 100 |  |
| O=C(CSc1nnc(NC(=O)c2ccc(Cl)cc2)s1)Nc1ccc(C(F)(F)F)cc1 [3g, 4-Chloro-N-(5-((2-oxo-2-((4-(trifluoromethyl)phenyl)amino)ethyl)thio)-1,3,4-thiadiazol-2-yl)benzamide] | > 100 | 27.1 ± 1.26 | 21.1 ± 0.996 | > 100 |  |
| O=C(CSc1nnc(NC(=O)c2ccc(Cl)c(Cl)c2)s1)Nc1ccccc1 [3a, 3,4-Dichloro-N-(5-((2-oxo-2-(phenylamino)ethyl)thio)-1,3,4-thiadiazol-2-yl)benzamide] | 2.39 ± 0.104 | > 100 | > 100 | > 100 |  |
| NS(=O)(=O)c1ccc(NC(=O)COc2ccc(/C=C/C(=O)c3ccc(Br)cc3)cc2)cc1 [(E)-2-(4-(3-(4-bromophenyl)-3-oxoprop-1-en-1-yl)phenoxy)-N-(4-sulfamoylphenyl)acetamide] |  |  |  |  | Ki (CA IX): 0.072 ± 0.00258 µM; IC50 (HDAC2): 0.0663 µM; IC50 (HDAC1): 0.134 µM; IC50 (tubulin polymerization [2]): 2.56 µM; Ki (CA XII): 0.0508 ± 0.00258 µM |
| O=C(CSc1nnc(NC(=O)c2ccc(F)cc2)s1)Nc1ccc(Cl)cc1 [3n, 4-Fluoro-N-(5-((2-((4-chlorophenyl)amino)-2-oxoethyl)thio)-1,3,4-thiadiazol-2-yl)benzamide] | 0.721 ± 0.03 | > 100 | > 100 | > 100 |  |
| COc1cccc2c1C(=O)c1c(O)c3c(c(O)c1C2=O)C[C@@](O)(C(=O)CO)C[C@@H]3O[C@H]1C[C@H](N)[C@H](O)[C@H](C)O1 [doxorubicin, reference compound] |  |  |  | > 100 |  |
| O=C(CSc1nnc(NC(=O)c2ccc(F)cc2)s1)Nc1ccc(C(F)(F)F)cc1 [3l, 4-Fluoro-N-(5-((2-oxo-2-((4-(trifluoromethyl)phenyl)amino)ethyl)thio)-1,3,4-thiadiazol-2-yl)benzamide] |  | 30.5 ± 1.37 | 41.1 ± 1.96 | 46.2 ± 1.82 | IC50 (COX-2 enzyme; read-out: COX-2 IC50, fluorometric kit, 25 °C): 0.974 ± 0.045 µM |
| COc1ccc(C(=O)Nc2nnc(SCC(=O)Nc3ccccc3)s2)cc1 [3p, 4-Methoxy-N-(5-((2-oxo-2-(phenylamino)ethyl)thio)-1,3,4-thiadiazol-2-yl)benzamide] | > 1000 | > 100 | > 100 | > 100 |  |
| O=C(CSc1nnc(NC(=O)c2ccc(Cl)cc2)s1)Nc1ccc(Cl)cc1 [3i, 4-Chloro-N-(5-((2-((4-chlorophenyl)amino)-2-oxoethyl)thio)-1,3,4-thiadiazol-2-yl)benzamide] | 3.78 ± 0.177 | 12.1 ± 0.589 | > 100 | 24.9 ± 1.18 |  |
| Br.CCOC(=O)C1=C(c2ccccc2)N=C2SC=C(c3ccc(C)cc3)N2C1c1ccc(Br)cc1 (centres unmarked) [Ethyl 5-(4-bromophenyl)-3-(4-methylphenyl)-7-phenyl-5H-thiazolo[3,2-a]pyrimidine-6-carboxylate hydrobromide] |  |  |  |  | activity against topoisomerase (topoisomerase II): 0.94 µM |
| COc1ccc(C(=O)Nc2nnc(SCC(=O)Nc3ccc(Cl)cc3)s2)cc1 [3t, 4-Methoxy-N-(5-((2-oxo-2-((4-chlorophenyl)amino)ethyl)thio)-1,3,4-thiadiazol-2-yl)benzamide] | > 100 | > 100 | > 100 | > 100 |  |
| Nc1ccccc1C(=O)O [Anthranilic acid] |  |  |  |  | activity against CDK6 (CDK6): 0.48 µM; activity against CDK2 (CDK2): 0.67 µM; activity against CDK12 (CDK12): 0.82 µM |
| COc1ccc(-c2csc(N3N=C(c4nnn(-c5ccc(S(N)(=O)=O)cc5)c4C)CC3c3ccc(OC)cc3)n2)cc1 (centres unmarked) [4-(4-(5-(4-methoxyphenyl)-1-(4-(4-methoxyphenyl)thiazol-2-yl)-4,5-dihydro-1H-pyrazol-3-yl)-5-methyl-1H-1,2,3-triazol-1-yl)benzenesulfonamide] |  |  |  |  | activity against CA IX [3]: 0.025 µM; activity against CA XII [4]: 0.031 µM |
| NS(=O)(=O)c1ccc(NC(=O)CSc2nnc(NC(=O)c3ccc(Cl)cc3)s2)cc1 [3j, 4-Chloro-N-(5-((2-oxo-2-((4-sulfamoylphenyl)amino)ethyl)thio)-1,3,4-thiadiazol-2-yl)benzamide] | 0.192 ± 0.008 | 2.38 ± 0.108 | 20.7 ± 0.984 | 85.6 ± 3.16 | % early apoptosis (MCF-7 cell line [5]; lower right quadrant): 20.20%; % necrosis (MCF-7 cell line [5]; upper left quadrant): 4.08%; % late apoptosis (MCF-7 cell line [5]; upper right quadrant): 15.56%; IC50 (EGFR enzyme): 0.02 ± 0.0008 µM |
| CS(=O)(=O)c1ccc(-n2cc(/C=N/c3ccc(NC(=O)CO[N+](=O)[O-])cc3)c(-c3ccc(Br)cc3)n2)cc1 [(E)-2-((4-(((3-(4-bromophenyl)-1-(4-(methylsulfonyl)phenyl)-1H-pyrazol-4-yl)methylene)amino)phenyl)amino)-2-oxoethyl nitrate] |  |  |  |  | activity against COX-2 (COX-2): 0.437 µM; activity against EGFR^L858R/T790M (EGFR^L858R/T790M): 0.031 µM; activity against EGFR^WT (EGFR^WT [6]): 0.452 µM |
| O=C(CSc1nnc(NC(=O)c2ccc(Cl)c(Cl)c2)s1)Nc1ccc(Cl)cc1 [3d, 3,4-Dichloro-N-(5-((2-((4-chlorophenyl)amino)-2-oxoethyl)thio)-1,3,4-thiadiazol-2-yl)benzamide] | 6.72 ± 0.312 | > 100 | > 100 | > 100 |  |
| CC(=NNC(=O)c1sc2sc(C(=O)NN=C(C)c3ccccc3)c(N)c2c1N)c1ccccc1 [3,4-diamino-N′2,N′5-bis(1-phenylethylidene)thieno[2,3-b]thiophene-2,5-dicarbohydrazide] |  |  |  |  | IC50 (EGFR^WT [7]): 0.0281 µM; IC50 (tubulin polymerization [8]): 5.1 µM; IC50 (EGFR^T790M): 0.0246 µM |
| COc1ccc(C(=O)Nc2nnc(SCC(=O)Nc3ccc(C(F)(F)F)cc3)s2)cc1 [3r, 4-Methoxy-N-(5-((2-oxo-2-((4-(trifluoromethyl)phenyl)amino)ethyl)thio)-1,3,4-thiadiazol-2-yl)benzamide] | > 100 | 43.1 ± 2.06 | > 100 | 47.6 ± 1.77 |  |
| O=C(CSc1nnc(NC(=O)c2ccc(Cl)c(Cl)c2)s1)Nc1ccc(C(F)(F)F)cc1 [3b, 3,4-Dichloro-N-(5-((2-oxo-2-((4-(trifluoromethyl)phenyl)amino)ethyl)thio)-1,3,4-thiadiazol-2-yl)benzamide] | > 1000 | > 100 | 46.5 ± 1.45 | 67.1 ± 2.37 |  |
| NS(=O)(=O)c1ccc(NC(=O)CSc2nnc(NC(=O)c3ccc(Cl)c(Cl)c3)s2)cc1 [3e, 3,4-Dichloro-N-(5-((2-oxo-2-((4-sulfamoylphenyl)amino)ethyl)thio)-1,3,4-thiadiazol-2-yl)benzamide] | 0.32 ± 0.014 | 11 ± 0.402 | > 100 | 70.8 ± 2.5 |  |
| Nc1nc2c3c(N)c(-c4nnc(NC(=O)c5ccccc5)s4)sc3ncn2n1 [N-(5-(2,9-diaminothieno[3,2-e]1,3,4-triazolo[1,5-c]pyrimidin-8-yl)-1,3,4-thiadiazol-2-yl)benzamide] |  |  |  |  | IC50 (AKT-1): 0.452 µM; IC50 (VEGFR-2): 0.164 µM |
